According to patent publication US20070049564A1 (Wyeth, priority 2005, published 2007):
In brackets after ≈: the same amount, converted by molar mass. Like-named read-outs stand apart in the source and are kept apart here.

Experiments:
Staph. = assay: Range of MIC for Staph. strains, including MRSA; conditions: Staphylococcus aureus
E. faecalis GC 2267 = assay: MIC, broth microdilution; conditions: Enterococcus faecalis
E. coli GC 4560 = assay: MIC, broth microdilution; conditions: Escherichia coli
S. typhimurium GC 2172 = assay: MIC, broth microdilution; conditions: Salmonella enterica, TYPHIMURIUM
S. aureus GC 4536 = assay: MIC, broth microdilution; conditions: Staphylococcus aureus
S. aureus GC 6467 = assay: MIC, broth microdilution; conditions: Staphylococcus aureus
E. coli GC 2231 = assay: MIC, broth microdilution; conditions: Escherichia coli
E. coli GC 2272 = assay: MIC, broth microdilution; conditions: Escherichia coli
E. coli GC 3226 = assay: MIC, broth microdilution; conditions: Escherichia coli
S. pneumoniae* GC 4465 = assay: MIC, broth microdilution; conditions: Streptococcus pneumoniae
E. coli GC 6465 = assay: MIC, broth microdilution; conditions: Escherichia coli
S. agalactiae GC 4564 = assay: MIC, broth microdilution; conditions: Streptococcus agalactiae
E. faecalis GC 4555 = assay: MIC, broth microdilution; conditions: Enterococcus faecalis
E. coli GC 2232 = assay: MIC, broth microdilution; conditions: Escherichia coli
E. faecium GC 2243 = assay: MIC, broth microdilution; conditions: Enterococcus faecium
S. aureus GC 6466 = assay: MIC, broth microdilution; conditions: Staphylococcus aureus
E. coli GC 2203 = assay: MIC, broth microdilution; conditions: Escherichia coli
E. coli = assay: Range of MIC for E. coli strains; conditions: Escherichia coli
E. faecalis GC 2265 = assay: MIC, broth microdilution; conditions: Enterococcus faecalis
S. aureus GC 6469 = assay: MIC, broth microdilution; conditions: Staphylococcus aureus
[1] = read-out: MINIMAL INHIBITORY CONCENTRATION MIC, pre-incubated in Human Serum
[2] = read-out: MINIMAL INHIBITORY CONCENTRATION MIC, pre-incubated in Mouse Serum
[3] = read-out: MINIMAL INHIBITORY CONCENTRATION MIC, pre-incubated in Water

CN(C)c1cc(NC(=O)CN(C(=O)OCOC(=O)C2CCCC2)C(C)(C)C)c(O)c2c1C[C@H]1C[C@H]3[C@H](N(C)C)C(O)=C(C(N)=O)C(=O)[C@@]3(O)C(O)=C1C2=O [Example 46, ({[(2-{[(5aR,6aS,7S,10aS)-9-(aminocarbonyl)-4,7-bis(dimethylamino)-1,8,10a,11-tetrahydroxy-10,12-dioxo-5,5a,6,6a,7,10,10a,12-octahydrotetracen-2-yl]amino}-2-oxoethyl)(tert-butyl)amino]carbonyl}oxy)methyl cyclopentanecarboxylate]
MIC (Staph.; MRSA, read-out: Range of MIC, Staph (Mouse Serum)): 0.25 to 1 µg/mL (≈ 0.331 to 1.32 µM)
MIC (Staph.; MRSA, read-out: Range of MIC, Staph (Water)): 0.25 to 2 µg/mL (≈ 0.331 to 2.65 µM)
MIC (Staph.; read-out: Minimum inhibitory concentration (MIC), Staph (Human Serum)): 0.25 to 1 µg/mL (≈ 0.331 to 1.32 µM)
MIC (Staph.; read-out: Minimum inhibitory concentration (MIC), Staph (Water)): 0.25 to 2 µg/mL (≈ 0.331 to 2.65 µM)
MIC (E. faecalis GC 2267; GC2267, read-out: MINIMAL INHIBITORY CONCENTRATION MIC, pre-incubated in Human Serum): 1 µg/mL (≈ 1.32 µM)
MIC (E. faecalis GC 2267; GC2267, read-out: MINIMAL INHIBITORY CONCENTRATION MIC, pre-incubated in Mouse Serum): 0.5 µg/mL (≈ 0.662 µM)
MIC (E. faecalis GC 2267; GC2267, read-out: MINIMAL INHIBITORY CONCENTRATION MIC, pre-incubated in Water): 2 µg/mL (≈ 2.65 µM)
MIC (E. coli GC 4560; GC4560, read-out: MINIMAL INHIBITORY CONCENTRATION MIC, pre-incubated in Human Serum): 1 µg/mL (≈ 1.32 µM)
MIC (E. coli GC 4560; GC4560, read-out: MINIMAL INHIBITORY CONCENTRATION MIC, pre-incubated in Mouse Serum): 0.5 µg/mL (≈ 0.662 µM)
MIC (E. coli GC 4560; GC4560, read-out: MINIMAL INHIBITORY CONCENTRATION MIC, pre-incubated in Water): 4 µg/mL (≈ 5.29 µM)
MIC (S. typhimurium GC 2172; [1]): 32 µg/mL (≈ 42.3 µM)
MIC (S. typhimurium GC 2172; [2]): 2 µg/mL (≈ 2.65 µM)
MIC (S. typhimurium GC 2172; [3]): > 64 µg/mL
MIC (S. aureus GC 4536; GC4536, read-out: MINIMAL INHIBITORY CONCENTRATION MIC, pre-incubated in Human Serum): 0.5 µg/mL (≈ 0.662 µM)
MIC (S. aureus GC 4536; GC4536, read-out: MINIMAL INHIBITORY CONCENTRATION MIC, pre-incubated in Mouse Serum): 0.5 µg/mL (≈ 0.662 µM)
MIC (S. aureus GC 4536; GC4536, read-out: MINIMAL INHIBITORY CONCENTRATION MIC, pre-incubated in Water): 0.5 µg/mL (≈ 0.662 µM)
MIC (S. aureus GC 6467; GC6467, read-out: MINIMAL INHIBITORY CONCENTRATION MIC, pre-incubated in Human Serum): 0.5 µg/mL (≈ 0.662 µM)
MIC (S. aureus GC 6467; GC6467, read-out: MINIMAL INHIBITORY CONCENTRATION MIC, pre-incubated in Mouse Serum): 1 µg/mL (≈ 1.32 µM)
MIC (S. aureus GC 6467; GC6467, read-out: MINIMAL INHIBITORY CONCENTRATION MIC, pre-incubated in Water): 1 µg/mL (≈ 1.32 µM)
MIC (E. coli GC 2231; GC2231, read-out: MINIMAL INHIBITORY CONCENTRATION MIC, pre-incubated in Human Serum): 4 µg/mL (≈ 5.29 µM)
MIC (E. coli GC 2231; GC2231, read-out: MINIMAL INHIBITORY CONCENTRATION MIC, pre-incubated in Mouse Serum): 0.5 µg/mL (≈ 0.662 µM)
MIC (E. coli GC 2231; GC2231, read-out: MINIMAL INHIBITORY CONCENTRATION MIC, pre-incubated in Water): 64 µg/mL (≈ 84.7 µM)
MIC (E. coli GC 2272; GC2272, read-out: MINIMAL INHIBITORY CONCENTRATION MIC, pre-incubated in Human Serum): 4 µg/mL (≈ 5.29 µM)
MIC (E. coli GC 2272; GC2272, read-out: MINIMAL INHIBITORY CONCENTRATION MIC, pre-incubated in Mouse Serum): 1 µg/mL (≈ 1.32 µM)
MIC (E. coli GC 2272; GC2272, read-out: MINIMAL INHIBITORY CONCENTRATION MIC, pre-incubated in Water): 64 µg/mL (≈ 84.7 µM)
MIC (E. coli GC 3226; GC3226, read-out: MINIMAL INHIBITORY CONCENTRATION MIC, pre-incubated in Human Serum): 16 µg/mL (≈ 21.2 µM)
MIC (E. coli GC 3226; GC3226, read-out: MINIMAL INHIBITORY CONCENTRATION MIC, pre-incubated in Mouse Serum): 1 µg/mL (≈ 1.32 µM)
MIC (E. coli GC 3226; GC3226, read-out: MINIMAL INHIBITORY CONCENTRATION MIC, pre-incubated in Water): > 64 µg/mL
MIC (S. pneumoniae* GC 4465; [1]): 0.12 µg/mL (≈ 0.159 µM)
MIC (S. pneumoniae* GC 4465; [2]): 0.12 µg/mL (≈ 0.159 µM)
MIC (S. pneumoniae* GC 4465; [3]): 0.12 µg/mL (≈ 0.159 µM)
MIC (E. coli GC 6465; GC6465, read-out: MINIMAL INHIBITORY CONCENTRATION MIC, pre-incubated in Human Serum): 16 µg/mL (≈ 21.2 µM)
MIC (E. coli GC 6465; GC6465, read-out: MINIMAL INHIBITORY CONCENTRATION MIC, pre-incubated in Mouse Serum): 2 µg/mL (≈ 2.65 µM)
MIC (E. coli GC 6465; GC6465, read-out: MINIMAL INHIBITORY CONCENTRATION MIC, pre-incubated in Water): > 64 µg/mL
MIC (S. agalactiae GC 4564; GC4564, read-out: MINIMAL INHIBITORY CONCENTRATION MIC, pre-incubated in Human Serum): 0.25 µg/mL (≈ 0.331 µM)
MIC (S. agalactiae GC 4564; GC4564, read-out: MINIMAL INHIBITORY CONCENTRATION MIC, pre-incubated in Mouse Serum): 0.25 µg/mL (≈ 0.331 µM)
MIC (S. agalactiae GC 4564; GC4564, read-out: MINIMAL INHIBITORY CONCENTRATION MIC, pre-incubated in Water): 0.25 µg/mL (≈ 0.331 µM)
MIC (E. faecalis GC 4555; GC4555, read-out: MINIMAL INHIBITORY CONCENTRATION MIC, pre-incubated in Human Serum): 0.5 µg/mL (≈ 0.662 µM)
MIC (E. faecalis GC 4555; GC4555, read-out: MINIMAL INHIBITORY CONCENTRATION MIC, pre-incubated in Mouse Serum): 0.5 µg/mL (≈ 0.662 µM)
MIC (E. faecalis GC 4555; GC4555, read-out: MINIMAL INHIBITORY CONCENTRATION MIC, pre-incubated in Water): 2 µg/mL (≈ 2.65 µM)
MIC (E. coli GC 2232; GC2232, read-out: MINIMAL INHIBITORY CONCENTRATION MIC, pre-incubated in Human Serum): 4 µg/mL (≈ 5.29 µM)
MIC (E. coli GC 2232; GC2232, read-out: MINIMAL INHIBITORY CONCENTRATION MIC, pre-incubated in Mouse Serum): 0.5 µg/mL (≈ 0.662 µM)
MIC (E. coli GC 2232; GC2232, read-out: MINIMAL INHIBITORY CONCENTRATION MIC, pre-incubated in Water): 64 µg/mL (≈ 84.7 µM)
MIC (E. faecium GC 2243; GC2243, read-out: MINIMAL INHIBITORY CONCENTRATION MIC, pre-incubated in Human Serum): 0.25 µg/mL (≈ 0.331 µM)
MIC (E. faecium GC 2243; GC2243, read-out: MINIMAL INHIBITORY CONCENTRATION MIC, pre-incubated in Mouse Serum): 0.25 µg/mL (≈ 0.331 µM)
MIC (E. faecium GC 2243; GC2243, read-out: MINIMAL INHIBITORY CONCENTRATION MIC, pre-incubated in Water): 0.5 µg/mL (≈ 0.662 µM)
MIC (S. aureus GC 6466; GC6466, read-out: MINIMAL INHIBITORY CONCENTRATION MIC, pre-incubated in Human Serum): 0.25 µg/mL (≈ 0.331 µM)
MIC (S. aureus GC 6466; GC6466, read-out: MINIMAL INHIBITORY CONCENTRATION MIC, pre-incubated in Mouse Serum): 0.25 µg/mL (≈ 0.331 µM)
MIC (S. aureus GC 6466; GC6466, read-out: MINIMAL INHIBITORY CONCENTRATION MIC, pre-incubated in Water): 0.25 µg/mL (≈ 0.331 µM)
MIC (E. coli GC 2203; GC2203, read-out: MINIMAL INHIBITORY CONCENTRATION MIC, pre-incubated in Human Serum): 8 µg/mL (≈ 10.6 µM)
MIC (E. coli GC 2203; GC2203, read-out: MINIMAL INHIBITORY CONCENTRATION MIC, pre-incubated in Mouse Serum): 0.5 µg/mL (≈ 0.662 µM)
MIC (E. coli GC 2203; GC2203, read-out: MINIMAL INHIBITORY CONCENTRATION MIC, pre-incubated in Water): > 64 µg/mL
MIC (E. coli; 20 h, read-out: Range of MIC, E. coli (Mouse Serum)): 0.5 to 2 µg/mL (≈ 0.662 to 2.65 µM)
MIC (E. coli; read-out: Minimum inhibitory concentration (MIC), E. coli (Human Serum)): 4 to 16 µg/mL (≈ 5.29 to 21.2 µM)
MIC (E. faecalis GC 2265; GC2265, read-out: MINIMAL INHIBITORY CONCENTRATION MIC, pre-incubated in Human Serum): 1 µg/mL (≈ 1.32 µM)
MIC (E. faecalis GC 2265; GC2265, read-out: MINIMAL INHIBITORY CONCENTRATION MIC, pre-incubated in Mouse Serum): 0.5 µg/mL (≈ 0.662 µM)
MIC (E. faecalis GC 2265; GC2265, read-out: MINIMAL INHIBITORY CONCENTRATION MIC, pre-incubated in Water): 2 µg/mL (≈ 2.65 µM)
MIC (S. aureus GC 6469; GC6469, read-out: MINIMAL INHIBITORY CONCENTRATION MIC, pre-incubated in Human Serum): 0.5 µg/mL (≈ 0.662 µM)
MIC (S. aureus GC 6469; GC6469, read-out: MINIMAL INHIBITORY CONCENTRATION MIC, pre-incubated in Mouse Serum): 1 µg/mL (≈ 1.32 µM)
MIC (S. aureus GC 6469; GC6469, read-out: MINIMAL INHIBITORY CONCENTRATION MIC, pre-incubated in Water): 1 µg/mL (≈ 1.32 µM)
